Laboratory results published in patent US11891365B2, “3-alkyl-4-amido-bicyclic [4,5,0] hydroxamic acids as HDAC inhibitors” (Valo Health, Inc., priority 2015, dated 2024).

Molecular target: T1, Full length human recombinant HDAC6 protein (Homo sapiens, UniProt Q9UBN7)
T1 sequence (Q9UBN7 1-1215): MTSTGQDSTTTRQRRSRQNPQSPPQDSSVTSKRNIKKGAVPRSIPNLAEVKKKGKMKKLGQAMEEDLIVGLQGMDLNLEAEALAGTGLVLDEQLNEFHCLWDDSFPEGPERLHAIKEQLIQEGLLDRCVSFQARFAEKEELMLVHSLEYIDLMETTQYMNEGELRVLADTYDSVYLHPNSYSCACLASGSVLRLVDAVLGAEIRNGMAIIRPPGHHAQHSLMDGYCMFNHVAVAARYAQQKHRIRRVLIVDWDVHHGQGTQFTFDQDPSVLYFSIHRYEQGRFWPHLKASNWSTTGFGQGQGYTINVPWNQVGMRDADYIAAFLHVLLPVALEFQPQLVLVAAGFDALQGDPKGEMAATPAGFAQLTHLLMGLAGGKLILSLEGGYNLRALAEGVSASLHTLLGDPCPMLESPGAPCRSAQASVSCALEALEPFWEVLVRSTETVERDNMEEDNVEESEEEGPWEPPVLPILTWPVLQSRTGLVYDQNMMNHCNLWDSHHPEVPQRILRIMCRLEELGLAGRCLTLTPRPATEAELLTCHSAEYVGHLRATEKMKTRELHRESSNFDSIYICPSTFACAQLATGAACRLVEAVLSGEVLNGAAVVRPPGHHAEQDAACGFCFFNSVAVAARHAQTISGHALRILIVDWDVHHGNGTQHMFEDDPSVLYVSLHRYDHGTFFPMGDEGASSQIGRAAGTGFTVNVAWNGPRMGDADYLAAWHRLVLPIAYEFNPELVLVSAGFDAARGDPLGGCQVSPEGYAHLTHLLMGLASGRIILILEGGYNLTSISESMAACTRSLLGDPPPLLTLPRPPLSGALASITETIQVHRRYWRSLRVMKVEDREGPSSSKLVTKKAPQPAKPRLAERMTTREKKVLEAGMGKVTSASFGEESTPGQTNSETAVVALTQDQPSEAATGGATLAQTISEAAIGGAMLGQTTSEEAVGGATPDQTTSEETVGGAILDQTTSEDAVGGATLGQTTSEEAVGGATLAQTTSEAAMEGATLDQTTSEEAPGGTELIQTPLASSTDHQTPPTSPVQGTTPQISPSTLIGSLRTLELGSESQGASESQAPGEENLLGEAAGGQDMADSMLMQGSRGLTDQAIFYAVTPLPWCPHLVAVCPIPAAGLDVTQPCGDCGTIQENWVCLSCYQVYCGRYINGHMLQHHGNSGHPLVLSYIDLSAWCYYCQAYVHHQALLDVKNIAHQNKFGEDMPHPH
Test: In vitro histone deacetylase assay: enzymatic HDAC6 electrophoretic mobility shift assay
Assay type: biochemical
Conditions: 1 nM enzyme, 2 μM peptide substrate RHKK(Ac)-NH2, 25° C., 12 concentrations; read-out: Inhibitory Concentration (IC50) Values against HDAC6, Activity Range
Protocol: The enzymatic HDAC6 assay was performed using electrophoretic mobility shift assay. […] The enzymatic reactions were assembled in 384 well plates in a total volume of 25 μL in a reaction buffer composing: 100 mM HEPES, pH7.5, 25 mM KCl, 0.1% bovine serum albumin, 0.01% Triton X-100, 1% DMSO (from compounds) 2 μM of the fluorescently labeled peptide substrate and enzyme. The enzyme was added at a final concentration of 1 nM. The peptide substrate RHKK(Ac)—NH2 was used. The compounds were tested at 12 concentrations spaced by 3× dilution intervals. Negative control samples ([…] in the absence of inhibitor) and positive control samples (100%-inhibition) were assembled in replicates of four in each assay plate. The reactions were incubated at 25° C. and quenched by the addition of 45 μL of termination buffer (100 mM HEPES, pH 7.5, 0.01% Triton X-100, 0.05% SDS).
The terminated assay plates were analyzed on LabChip® 3000 microfluidic electrophoresis instrument (Perkin Elmer/Caliper Life Sciences). The fluorescence intensity of the electrophoretically separated de-acetylated product and substrate peptide was measured. Activity in each sample was determined as the product to sum ratio (PSR): P/(S+P), where P is the peak height of the product peptide and S is the peak height of the substrate peptide. Percent inhibition (Pinh) is determined using the following equation:
Pinh=(PSR0%−PSRinh)/(PSR0%−PSR100%)*100, where PSRinh is the product sum ratio in the presence of inhibitor, PSR0% is the average product sum ration in the absence of inhibitor and PSR100% is the average product sum ratio in 100%-inhibition control samples. The IC50 values of inhibitors were determined by fitting the %-inhibition curves with 4 parameter dose-response model using XLfit 4 software.

IC50 [nM] | SMILES
100 to 500 | CC(C(=O)N1CCOc2cc(C(=O)NO)ccc2C1)c1ccc(F)cc1 (centres unmarked) [4-(2-(4-fluorophenyl)propanoyl)-N-hydroxy-2,3,4,5-tetrahydrobenzo[f][1,4]oxazepine-8-carboxamide]
≤ 100 | CC(C)C(=O)N1CCOc2cc(C(=O)NO)ccc2C1 [N-hydroxy-4-isobutyryl-2,3,4,5-tetrahydrobenzo[f][1,4]oxazepine-8-carboxamide]
> 500 | COc1ccc(C(=O)N2CC(=O)Nc3ccc(C(=O)NO)cc3C2)cc1 [N-hydroxy-4-(4-methoxybenzoyl)-2-oxo-2,3,4,5-tetrahydro-1H-benzo[e][1,4]diazepine-7-carboxamide]
≤ 100 | O=C(NO)c1ccc2c(c1)OCCN(C(=O)C1(c3cccs3)CC1)C2 [N-hydroxy-4-(1-(thiophen-2-yl)cyclopropane-1-carbonyl)-2,3,4,5-tetrahydrobenzo[f][1,4]oxazepine-8-carboxamide]
100 to 500 | O=C(NO)c1ccc2c(c1)OCCN(C(=O)CCC(F)(F)F)C2 [N-hydroxy-4-(4,4,4-trifluorobutanoyl)-2,3,4,5-tetrahydrobenzo[f][1,4]oxazepine-8-carboxamide]
100 to 500 | CC(=O)N1CCC(C(=O)N2CCOc3cc(C(=O)NO)ccc3C2)C1 (centres unmarked) [4-(1-acetylpyrrolidine-3-carbonyl)-N-hydroxy-2,3,4,5-tetrahydrobenzo[f][1,4]oxazepine-8-carboxamide]
≤ 100 | C[C@H]1COc2cc(C(=O)NO)ccc2CN1C(=O)C1CCC(C)(C)O1 (stereo partly drawn) [(3S)-4-(5,5-dimethyltetrahydrofuran-2-carbonyl)-N-hydroxy-3-methyl-2,3,4,5-tetrahydrobenzo[f][1,4]oxazepine-8-carboxamide]
100 to 500 | COc1ccc(C(=O)N2CCOc3cc(C(=O)NO)ccc3C2)c(OC)c1 [4-(2,4-dimethoxybenzoyl)-N-hydroxy-2,3,4,5-tetrahydrobenzo[f][1,4]oxazepine-8-carboxamide]
> 500 | O=C(NO)c1ccc2c(c1)OCCN(C(=O)CN1CCS(=O)(=O)CC1)C2 [4-(2-(1,1-dioxidothiomorpholino)acetyl)-N-hydroxy-2,3,4,5-tetrahydrobenzo[f][1,4]oxazepine-8-carboxamide]
≤ 100 | CC1(C(=O)N2CCOc3cc(C(=O)NO)ccc3C2)CCC1 [N-hydroxy-4-(1-methylcyclobutane-1-carbonyl)-2,3,4,5-tetrahydrobenzo[f][1,4]oxazepine-8-carboxamide]
100 to 500 | O=C(NO)c1ccc2c(c1)OCCN(C(=O)c1ccc3occc3c1)C2 [4-(benzofuran-5-carbonyl)-N-hydroxy-2,3,4,5-tetrahydrobenzo[f][1,4]oxazepine-8-carboxamide]
≤ 100 | CN(C)c1c(C(=O)N2CCOc3cc(C(=O)NO)ccc3C2)sc2ccccc12 [4-(3-(dimethylamino)benzo[b]thiophene-2-carbonyl)-N-hydroxy-2,3,4,5-tetrahydrobenzo[f][1,4]oxazepine-8-carboxamide]
100 to 500 | CC(C)(C(=O)N1CCOc2cc(C(=O)NO)ccc2C1)c1ccccn1 [N-hydroxy-4-(2-methyl-2-(pyridin-2-yl)propanoyl)-2,3,4,5-tetrahydrobenzo[f][1,4]oxazepine-8-carboxamide]
≤ 100 | O=CN1Cc2ccc(C(=O)NO)cc2O[C@@H](c2ccccc2)C1 [(S)-4-formyl-N-hydroxy-2-phenyl-2,3,4,5-tetrahydrobenzo[f][1,4]oxazepine-8-carboxamide]
≤ 100 | O=C(NO)c1ccc2c(c1)OCCN(C(=O)CCc1ccccc1)C2 [N-hydroxy-4-(3-phenylpropanoyl)-2,3,4,5-tetrahydrobenzo[f][1,4]oxazepine-8-carboxamide]
> 500 | CC(C(=O)N1CCOc2cc(C(=O)NO)ccc2C1)N1CCS(=O)(=O)CC1 (centres unmarked) [4-(2-(1,1-dioxidothiomorpholino)propanoyl)-N-hydroxy-2,3,4,5-tetrahydrobenzo[f][1,4]oxazepine-8-carboxamide]
> 500 | CC(=O)N1Cc2ccc(C(=O)NO)cc2O[C@@H](C)C1 [(S)-4-acetyl-N-hydroxy-2-methyl-2,3,4,5-tetrahydrobenzo[f][1,4]oxazepine-8-carboxamide]
≤ 100 | C[C@H]1COc2cc(C(=O)NO)ccc2CN1C(=O)C1CCN(C=O)CC1 [(S)-4-(1-formylpiperidine-4-carbonyl)-N-hydroxy-3-methyl-2,3,4,5-tetrahydrobenzo[f][1,4]oxazepine-8-carboxamide]
100 to 500 | COC(C)(C(=O)N1CCOc2cc(C(=O)NO)ccc2C1)c1ccccc1 (centres unmarked) [N-hydroxy-4-(2-methoxy-2-phenylpropanoyl)-2,3,4,5-tetrahydrobenzo[f][1,4]oxazepine-8-carboxamide]
≤ 100 | O=CN1Cc2ccc(C(=O)NO)cc2O[C@H](c2ccccc2)C1 [(R)-4-formyl-N-hydroxy-2-phenyl-2,3,4,5-tetrahydrobenzo[f][1,4]oxazepine-8-carboxamide]
≤ 100 | C[C@H]1COc2cc(C(=O)NO)ccc2CN1C(=O)C1CC1 [(S)-4-(cyclopropanecarbonyl)-N-hydroxy-3-methyl-2,3,4,5-tetrahydrobenzo[f][1,4]oxazepine-8-carboxamide]
≤ 100 | O=CN1CCOc2cc(C(=O)NO)ccc2C1 [4-formyl-N-hydroxy-2,3,4,5-tetrahydrobenzo[f][1,4]oxazepine-8-carboxamide]
≤ 100 | CC(=O)N1CCC(C(=O)N2Cc3ccc(C(=O)NO)cc3OC[C@@H]2C)CC1 [(S)-4-(1-acetylpiperidine-4-carbonyl)-N-hydroxy-3-methyl-2,3,4,5-tetrahydrobenzo[f][1,4]oxazepine-8-carboxamide]
≤ 100 | O=C(NO)c1ccc2c(c1)O[C@@H](c1ccccc1)CN(C(=O)C1CCOCC1)C2 [(S)-N-hydroxy-2-phenyl-4-(tetrahydro-2H-pyran-4-carbonyl)-2,3,4,5-tetrahydrobenzo[f][1,4]oxazepine-8-carboxamide]
≤ 100 | C[C@H]1COc2cc(C(=O)NO)ccc2CN1C(=O)[C@H]1C[C@H](Oc2ccccc2)C1 (single isomer, unassigned)
> 500 | CC(C)[C@H]1c2ccc(C(=O)NO)cc2OCCN1C(=O)C1CCOCC1 [(S)-N-hydroxy-5-isopropyl-4-(tetrahydro-2H-pyran-4-carbonyl)-2,3,4,5-tetrahydrobenzo[f][1,4]oxazepine-8-carboxamide]
≤ 100 | O=C(NO)c1ccc2c(c1)OCCN(C(=O)C1(c3ccc(C(F)(F)F)cc3)CC1)C2 [N-hydroxy-4-(1-(4-(trifluoromethyl)phenyl)cyclopropane-1-carbonyl)-2,3,4,5-tetrahydrobenzo[f][1,4]oxazepine-8-carboxamide]
≤ 100 | C[C@H]1COc2cc(C(=O)NO)ccc2CN1C(=O)[C@]1(C)CCOC1 [(S)-N-hydroxy-3-methyl-4-((R)-3-methyltetrahydrofuran-3-carbonyl)-2,3,4,5-tetrahydrobenzo[f][1,4]oxazepine-8-carboxamide]
100 to 500 | CC(=O)N1Cc2ccc(C(=O)NO)cc2OCC1(C)C [4-acetyl-N-hydroxy-3,3-dimethyl-2,3,4,5-tetrahydrobenzo[f][1,4]oxazepine-8-carboxamide]
